Data set [1] is described as follows: Inhibition of Escherichia coli C-terminal His-tagged PPAT expressed in Escherichia coli using 4'-phosphopantetheine as substrate preincubated for 5 mins followed by substrate and pyrophosphatase addition measured after 30 mins by malachite green reagent-based colorimetric method.
Data set [2] is described as follows: Dissociation rate constant to Escherichia coli PPAT by SPR method. (Surface plasmon resonance follows binding to a sensor surface in real time, without labels.)
A short description of data set [3]: Inhibition of Pseudomonas aeruginosa C-terminal His-tagged PPAT expressed in Escherichia coli using 4'-phosphopantetheine as substrate preincubated for 5 mins followed by substrate and pyrophosphatase addition measured after 30 mins by malachite green reagent-based colorimetric method.
Data set [4] has as its target T1, Bifunctional coenzyme A synthase (Homo sapiens) (UniProt Q13057).
T1 sequence (whole entry): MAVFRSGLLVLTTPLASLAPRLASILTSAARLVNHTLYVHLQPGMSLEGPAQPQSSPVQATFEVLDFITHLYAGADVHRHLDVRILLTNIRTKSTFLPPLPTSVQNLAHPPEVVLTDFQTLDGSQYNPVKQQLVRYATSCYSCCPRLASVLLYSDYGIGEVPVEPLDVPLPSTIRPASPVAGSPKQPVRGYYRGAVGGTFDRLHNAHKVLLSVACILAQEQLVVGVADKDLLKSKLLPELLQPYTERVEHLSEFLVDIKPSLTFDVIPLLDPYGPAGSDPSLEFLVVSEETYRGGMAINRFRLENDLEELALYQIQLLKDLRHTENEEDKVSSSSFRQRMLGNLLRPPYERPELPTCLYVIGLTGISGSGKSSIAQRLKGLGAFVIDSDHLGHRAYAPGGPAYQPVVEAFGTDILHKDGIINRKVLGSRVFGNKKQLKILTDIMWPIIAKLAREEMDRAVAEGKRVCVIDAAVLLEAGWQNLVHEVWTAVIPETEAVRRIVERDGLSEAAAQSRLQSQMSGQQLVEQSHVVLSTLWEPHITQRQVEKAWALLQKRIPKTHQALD
The data set can be described thus: Inhibition of human PPAT up to 500 uM.

A short description of data set [5]: Lipophilicity, log D of the compound at pH 7.4. The class given is physicochemical. As to conditions: buffer.
Data set [6] relates to Escherichia coli. Description: Antibacterial activity against Escherichia coli ATCC 25922 after 20 hrs by broth microdilution method. The format is functional.
A short description of data set [7]: Solubility of the compound. The class given is physicochemical.
Data set [8] relates to Escherichia coli. The data set can be described thus: Antibacterial activity against tolC deficient Escherichia coli BW25113 after 20 hrs by broth microdilution method. As to conditions: BW25113, 20 h. The class given is functional. For orientation: Broth dilution looks for growth in wells or tubes with falling amounts of substance.
Data set [9] has as its system Escherichia coli. Description: (§1) Binding affinity to Escherichia coli PPAT by SPR method.
Data set [10] in a line: as §1.
The nature of data set [11]: Inhibition of Staphylococcus aureus C-terminal His-tagged PPAT expressed in Escherichia coli using 4'-phosphopantetheine as substrate preincubated for 5 mins followed by substrate and pyrophosphatase addition measured after 30 mins by malachite green reagent-based colorimetric method.
The test system of data set [12] is Escherichia coli. The data set can be described thus: Inhibition of Escherichia coli C-terminal His-tagged PPAT V135I mutant using 4'-phosphopantetheine as substrate preincubated for 20 mins followed by substrate and pyrophosphatase addition by malachite green reagent-based assay.
Data set [13] concerns Escherichia coli. Description: Inhibition of Escherichia coli C-terminal His-tagged PPAT H138L mutant using 4'-phosphopantetheine as substrate preincubated for 20 mins followed by substrate and pyrophosphatase addition by malachite green reagent-based assay.
Data set [14] deals with Escherichia coli. The data set can be described thus: Selectivity ratio of IC50 for Escherichia coli C-terminal His-tagged PPAT M74L mutant to IC50 for Escherichia coli C-terminal His-tagged PPAT.
Data set [15] concerns Escherichia coli. The data set can be described thus: Inhibition of Escherichia coli C-terminal His-tagged PPAT expressed in Escherichia coli up to 500 uM using 4'-phosphopantetheine as substrate preincubated for 5 mins followed by substrate and pyrophosphatase addition measured after 30 mins by malachite green reagent-based colorimetric method.
The nature of data set [16]: Selectivity ratio of IC50 for human PPAT to IC50 for Escherichia coli C-terminal His-tagged PPAT.
Data set [17] deals with T2, Bifunctional coenzyme A synthase (Homo sapiens, UniProt Q13057).
T2 sequence (Q13057 whole entry): T1 sequence (whole entry)
The data set can be described thus: Inhibition of human PPAT.

Data set [18] can be described thus: Inhibition of Escherichia coli C-terminal His-tagged PPAT expressed in Escherichia coli using 10 times 4'-phosphopantetheine as substrate preincubated for 5 mins followed by substrate and pyrophosphatase addition measured after 30 mins by malachite green reagent-based colorimetric method.
Data set [19] concerns Escherichia coli. The data set can be described thus: Ratio of IC50 for Escherichia coli C-terminal His-tagged PPAT expressed in Escherichia coli using 10 times 4'-phosphopantetheine as substrate to IC50 for Escherichia coli C-terminal His-tagged PPAT expressed in Escherichia coli using 4'-phosphopantetheine as substrate.

Values after ≈ are worked out from the molar mass of the structure shown. Active and inactive are the calls of the source.

As to `Cc1cc(=O)n2nc(N[C@H](CC#N)c3cccc(Cl)c3)nc2[nH]1`, the IC50 in data set [1] was 37 nM; in [3] it was 49 nM; in [11], over 500000 nM. Moreover, in data set [2], the koff was 0.021 s⁻¹. The inhibition entry in data set [4] was “inactive”. In data set [5], this compound showed a logD of 1.2. In the data set with Escherichia coli [6], the outcome was inactive. Moreover, the solubility in data set [7] is over 300 µg/mL. Also, in the data set on Escherichia coli [8], inhibition of growth (MIC) required 16 µg/mL (≈ 48.7 µM). Also, the Ka in the data set with Escherichia coli [9] was 23 ×10⁵ /M/s. This compound showed a Kd in data set [10] of 9 nM.
With `CC(C)CNC(=O)[C@@H](Cc1cnc[nH]1)NC(=O)[C@H](CCC(=O)O)NC(=O)OC1c2ccccc2-c2ccccc21`, the inhibition entry with Escherichia coli [12] and in the data set on Escherichia coli [13] was “Active” each time. Besides, the Ratio IC50 in the data set on Escherichia coli [14] was determined as 25.
On to `CCCCCNC(=O)CCNC(=O)[C@H](O)C(C)(C)CO`, for which the inhibition result in the data set with Escherichia coli [15] was “inactive”. Also, the MIC in the data set on Escherichia coli [6] (ATCC 25922, 20 h) worked out at 64 µg/mL (≈ 222 µM); with Escherichia coli [8], 16 µg/mL (≈ 55.5 µM).
Take `C[C@@H](Nc1nc2c(O)cccc2[nH]1)c1cccc(Cl)c1`: the IC50 turned out to be 1200 nM in [1], 15000 nM in data set [3] and 11000 nM in [17]. In addition, in data set [16], the Ratio IC50 stood at 9.
On to `Cc1cc(=O)n2nc(N[C@H](C)c3cccc(Cl)c3)nc2[nH]1`, for which the IC50 in data set [1] came out at 250 nM; in [18], 920 nM; in data set [3] it was 970 nM. The compound also had a koff in data set [2] of 0.0028 s⁻¹. In addition, in the data set with Escherichia coli [19], the Ratio IC50 turned out to be 3.7. In data set [5], this compound came in with a logD of 1.1. This compound also came in with a solubility in data set [7] of 68 µg/mL (≈ 224 µM). For the same compound, in the data set with Escherichia coli [9], the Ka came out at 0.16 ×10⁵ /M/s. The compound further displayed a Kd in [10] of 170 nM.

One may read the IC50 as the concentration needed to halve the response being measured. What is called koff is the first-order rate constant of dissociation. High values mean fast dissociation, low ones slow dissociation. For orientation: logD means the decadic logarithm of the distribution of all forms, ionised or not, between an organic phase and buffer at a given pH. A low value points to lower lipophilicity. One may read the solubility as the dissolved amount per volume that the medium holds. Low values mean little dissolved substance, high ones much dissolved substance. By MIC is commonly meant the smallest concentration in the dilution series that meets the test's criterion for growth inhibition. High values mean a less susceptible organism, low ones a more susceptible organism. In general, Kd refers to the free concentration of one partner at which half of the binding sites on the other are occupied at equilibrium, for simple one-to-one binding.

Values taken from ChEMBL document CHEMBL4043289, “Fragment-Based Drug Discovery of Inhibitors of Phosphopantetheine Adenylyltransferase from Gram-Negative Bacteria” (J Med Chem, 2018).
